Reference: publication PMC9829398 (Plant Biotechnology Journal, 2022)

Assays:
[1] = system: FER cytoplasmic domain (FER‐CD); test: FER-CD kinase activity (autophosphorylation), high-throughput screening, Kinase-Lumi luminescent ATP consumption; type: biochemical, Arabidopsis thaliana; conditions: in vitro autophosphorylation
ANJEA‐CD = test: ANJEA-CD kinase activity (autophosphorylation); type: biochemical, Arabidopsis thaliana; conditions: 5 μM
tobacco roots = test: RNA-seq of tobacco roots (DEGs, GO and KEGG classification and enrichment); type: in vivo
[2] = biological target: EGFR‐associated tyrosine kinase; design: method as in Hsu et al., [1991]; conditions: ref Hsu et al., [1991]; cited from earlier work
FER‐CD = FER‐CD (Arabidopsis thaliana, UniProt Q9SCZ4); test: biochemical
tobacco = test: Growth of tobacco (shoot and root fresh weight, Day 25); conditions: 5 μM irrigated twice
[3] = KEGG ko00040 Pentose and glucuronate interconversions
[4] = KEGG ko00052 Galactose metabolism
[5] = KEGG ko00062 Fatty acid elongation
[6] = KEGG ko00071 Fatty acid degradation
[7] = KEGG ko00073 Cutin, suberine and wax biosynthesis
[8] = KEGG ko00100 Steroid biosynthesis
[9] = KEGG ko00250 Alanine, aspartate and glutamate metabolism
[10] = KEGG ko00270 Cysteine and methionine metabolism
[11] = KEGG ko00290 Valine, leucine and isoleucine biosynthesis
[12] = KEGG ko00330 Arginine and proline metabolism
[13] = KEGG ko00350 Tyrosine metabolism
[14] = KEGG ko00360 Phenylalanine metabolism
[15] = KEGG ko00410 beta-Alanine metabolism
[16] = KEGG ko00430 Taurine and hypotaurine metabolism
[17] = KEGG ko00460 Cyanoamino acid metabolism
[18] = KEGG ko00480 Glutathione metabolism
[19] = KEGG ko00500 Starch and sucrose metabolism
[20] = KEGG ko00511 Other glycan degradation
[21] = KEGG ko00520 Amino sugar and nucleotide sugar metabolism
[22] = KEGG ko00531 Glycosaminoglycan degradation
[23] = KEGG ko00561 Glycerolipid metabolism
[24] = KEGG ko00564 Glycerophospholipid metabolism
[25] = KEGG ko00590 Arachidonic acid metabolism
[26] = KEGG ko00591 Linoleic acid metabolism
[27] = KEGG ko00592 alpha-Linolenic acid metabolism
[28] = KEGG ko00603 Glycosphingolipid biosynthesis - globo series
[29] = KEGG ko00604 Glycosphingolipid biosynthesis - ganglio series
[30] = KEGG ko00650 Butanoate metabolism
[31] = KEGG ko00730 Thiamine metabolism
[32] = KEGG ko00760 Nicotinate and nicotinamide metabolism
[33] = KEGG ko00770 Pantothenate and CoA biosynthesis
[34] = KEGG ko00904 Diterpenoid biosynthesis
[35] = KEGG ko00905 Brassinosteroid biosynthesis
[36] = KEGG ko00906 Carotenoid biosynthesis
[37] = KEGG ko00908 Zeatin biosynthesis
[38] = KEGG ko00909 Sesquiterpenoid and triterpenoid biosynthesis
[39] = KEGG ko00910 Nitrogen metabolism
[40] = KEGG ko00940 Phenylpropanoid biosynthesis
[41] = KEGG ko00941 Flavonoid biosynthesis
[42] = KEGG ko00950 Isoquinoline alkaloid biosynthesis
[43] = KEGG ko00960 Tropane, piperidine and pyridine alkaloid biosynthesis
[44] = KEGG ko00980 Metabolism of xenobiotics by cytochrome P450
[45] = KEGG ko00982 Drug metabolism - cytochrome P450
[46] = KEGG ko01040 Biosynthesis of unsaturated fatty acids
[47] = KEGG ko03320 PPAR signaling pathway
[48] = KEGG ko04010 MAPK signaling pathway
[49] = KEGG ko04011 MAPK signaling pathway - yeast
[50] = KEGG ko04020 Calcium signaling pathway
[51] = KEGG ko04022 cGMP-PKG signaling pathway
[52] = KEGG ko04075 Plant hormone signal transduction
[53] = KEGG ko04140 Regulation of autophagy
[54] = KEGG ko04211 Longevity regulating pathway
[55] = KEGG ko04212 Longevity regulating pathway - worm
[56] = KEGG ko04370 VEGF signaling pathway
[57] = KEGG ko04380 Osteoclast differentiation
[58] = KEGG ko04614 Renin-angiotensin system
[59] = KEGG ko04626 Plant-pathogen interaction
[60] = KEGG ko04650 Natural killer cell mediated cytotoxicity
[61] = KEGG ko04660 T cell receptor signaling pathway
[62] = KEGG ko04662 B cell receptor signaling pathway
[63] = KEGG ko04712 Circadian rhythm - plant
[64] = KEGG ko04720 Long-term potentiation
[65] = KEGG ko04723 Retrograde endocannabinoid signaling
[66] = KEGG ko04724 Glutamatergic synapse
[67] = KEGG ko04810 Regulation of actin cytoskeleton
[68] = KEGG ko04920 Adipocytokine signaling pathway
[69] = KEGG ko04921 Oxytocin signaling pathway
[70] = KEGG ko04922 Glucagon signaling pathway
[71] = KEGG ko04974 Protein digestion and absorption
[72] = KEGG ko04975 Fat digestion and absorption
[73] = tobacco roots, 5 μM irrigated twice, coregulated genes, vs DMSO

FER‐CD, sequence (Q9SCZ4 469-895): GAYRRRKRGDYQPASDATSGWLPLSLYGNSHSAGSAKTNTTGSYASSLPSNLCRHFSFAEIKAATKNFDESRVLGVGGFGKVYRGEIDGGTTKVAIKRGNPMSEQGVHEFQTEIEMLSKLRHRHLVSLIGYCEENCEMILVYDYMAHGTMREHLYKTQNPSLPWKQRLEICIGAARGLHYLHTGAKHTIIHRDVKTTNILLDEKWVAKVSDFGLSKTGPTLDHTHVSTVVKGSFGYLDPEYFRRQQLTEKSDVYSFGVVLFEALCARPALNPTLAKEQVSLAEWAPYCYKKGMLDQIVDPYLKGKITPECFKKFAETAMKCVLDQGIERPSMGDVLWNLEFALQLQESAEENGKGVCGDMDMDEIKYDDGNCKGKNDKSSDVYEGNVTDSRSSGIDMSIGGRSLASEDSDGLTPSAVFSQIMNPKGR

## O=C(O)c1cc(N(Cc2ccccc2O)Cc2cc(O)ccc2O)ccc1O [Lavendustin A]
[1]
  Effect on FER kinase activity: inhibited the kinase activity of FER
ANJEA‐CD
  Inhibition rate of ANJEA-CD kinase activity: lower than 55%
Tobacco roots; [3]
  Enrichment_score: 1.762
  ListHits: 11
Tobacco roots; [4]
  Enrichment_score: 3.118
  ListHits: 9
Tobacco roots; [5]
  Enrichment_score: 4.058
  ListHits: 8
Tobacco roots; [6]
  Enrichment_score: 0.9908
  ListHits: 2
Tobacco roots; [7]
  Enrichment_score: 6.683
  ListHits: 16
Tobacco roots; [8]
  Enrichment_score: 3.5933
  ListHits: 7
Tobacco roots; [9]
  Enrichment_score: 2.602
  ListHits: 8
Tobacco roots; [10]
  Enrichment_score: 1.358
  ListHits: 8
Tobacco roots; [11]
  Enrichment_score: 1.495
  ListHits: 2
Tobacco roots; [12]
  Enrichment_score: 2.996
  ListHits: 9
Tobacco roots; [13]
  Enrichment_score: 1.721
  ListHits: 4
Tobacco roots; [14]
  Enrichment_score: 3.551
  ListHits: 8
Tobacco roots; [15]
  Enrichment_score: 1.826
  ListHits: 6
Tobacco roots; [16]
  Enrichment_score: 1.704
  ListHits: 1
Tobacco roots; [17]
  Enrichment_score: 2.209
  ListHits: 7
Tobacco roots; [18]
  Enrichment_score: 1.785
  ListHits: 8
Tobacco roots; [19]
  Enrichment_score: 2.489
  ListHits: 34
Tobacco roots; [20]
  Enrichment_score: 1.253
  ListHits: 1
Tobacco roots; [21]
  Enrichment_score: 1.791
  ListHits: 14
Tobacco roots; [22]
  Enrichment_score: 1.152
  ListHits: 1
Tobacco roots; [23]
  Enrichment_score: 2.272
  ListHits: 8
Tobacco roots; [24]
  Enrichment_score: 1.826
  ListHits: 9
Tobacco roots; [25]
  Enrichment_score: 1.2911
  ListHits: 1
Tobacco roots; [26]
  Enrichment_score: 6.087
  ListHits: 6
Tobacco roots; [27]
  Enrichment_score: 4.111
  ListHits: 11
Tobacco roots; [28]
  Enrichment_score: 4.485
  ListHits: 2
Tobacco roots; [29]
  Enrichment_score: 4.734
  ListHits: 1
Tobacco roots; [30]
  Enrichment_score: 1.671
  ListHits: 2
Tobacco roots; [31]
  Enrichment_score: 1.522
  ListHits: 1
Tobacco roots; [32]
  Enrichment_score: 4.438
  ListHits: 5
Tobacco roots; [33]
  Enrichment_score: 1.397
  ListHits: 2
Tobacco roots; [34]
  Enrichment_score: 1.0025
  ListHits: 2
Tobacco roots; [35]
  Enrichment_score: 2.84
  ListHits: 2
Tobacco roots; [36]
  Enrichment_score: 1.079
  ListHits: 2
Tobacco roots; [37]
  Enrichment_score: 1.973
  ListHits: 5
Tobacco roots; [38]
  Enrichment_score: 1.739
  ListHits: 2
Tobacco roots; [39]
  Enrichment_score: 6.015
  ListHits: 12
Tobacco roots; [40]
  Enrichment_score: 5.314
  ListHits: 58
Tobacco roots; [41]
  Enrichment_score: 1.173
  ListHits: 3
Tobacco roots; [42]
  Enrichment_score: 2.794
  ListHits: 4
Tobacco roots; [43]
  Enrichment_score: 4.058
  ListHits: 6
Tobacco roots; [44]
  Enrichment_score: 2.166
  ListHits: 6
Tobacco roots; [45]
  Enrichment_score: 2.749
  ListHits: 8
Tobacco roots; [46]
  Enrichment_score: 1.121
  ListHits: 2
Tobacco roots; KEGG ko02010 ABC transporters
  Enrichment_score: 2.282
  ListHits: 3
Tobacco roots; [47]
  Enrichment_score: 2.72
  ListHits: 3
Tobacco roots; [48]
  Enrichment_score: 1.195
  ListHits: 3
Tobacco roots; [49]
  Enrichment_score: 1.3634
  ListHits: 4
Tobacco roots; [50]
  Enrichment_score: 1.535
  ListHits: 4
Tobacco roots; [51]
  Enrichment_score: 1.209
  ListHits: 4
Tobacco roots; [52]
  Enrichment_score: 1.797
  ListHits: 28
Tobacco roots; [53]
  Enrichment_score: 1.598
  ListHits: 3
Tobacco roots; KEGG ko04146 Peroxisome
  Enrichment_score: 1.462
  ListHits: 7
Tobacco roots; [54]
  Enrichment_score: 1.677
  ListHits: 5
Tobacco roots; [55]
  Enrichment_score: 1.175
  ListHits: 4
Tobacco roots; KEGG ko04360 Axon guidance
  Enrichment_score: 2.905
  ListHits: 6
Tobacco roots; [56]
  Enrichment_score: 2.242
  ListHits: 3
Tobacco roots; [57]
  Enrichment_score: 2.242
  ListHits: 3
Tobacco roots; [58]
  Enrichment_score: 9.13
  ListHits: 3
Tobacco roots; [59]
  Enrichment_score: 1.285
  ListHits: 13
Tobacco roots; [60]
  Enrichment_score: 2.412
  ListHits: 3
Tobacco roots; [61]
  Enrichment_score: 2.905
  ListHits: 3
Tobacco roots; [62]
  Enrichment_score: 2.204
  ListHits: 3
Tobacco roots; [63]
  Enrichment_score: 1.266
  ListHits: 3
Tobacco roots; [64]
  Enrichment_score: 1.66
  ListHits: 3
Tobacco roots; [65]
  Enrichment_score: 1.014
  ListHits: 1
Tobacco roots; [66]
  Enrichment_score: 1.982
  ListHits: 4
Tobacco roots; KEGG ko04727 GABAergic synapse
  Enrichment_score: 1.8
  ListHits: 3
Tobacco roots; [67]
  Enrichment_score: 1.244
  ListHits: 4
Tobacco roots; [68]
  Enrichment_score: 3.4085
  ListHits: 6
Tobacco roots; [69]
  Enrichment_score: 1.746
  ListHits: 5
Tobacco roots; [70]
  Enrichment_score: 1.2104
  ListHits: 5
Tobacco roots; KEGG ko04924 Renin secretion
  Enrichment_score: 2.282
  ListHits: 3
Tobacco roots; [71]
  Enrichment_score: 11.3617
  ListHits: 4
Tobacco roots; [72]
  Enrichment_score: 3.551
  ListHits: 1
Tobacco roots; KEGG ko04976 Bile secretion
  Enrichment_score: 2.324
  ListHits: 3
Tobacco roots; RNA-seq, GO growth, vs DMSO
  Expression levels of growth-related genes in tobacco roots: differentially elevated the expression levels of most growth‐related genes
Tobacco roots; RNA-seq, vs DMSO
  Expression levels of RBOHs, MYB44, TGA2, WRKY19, EFR, FLS2, PR1 and PDF1.4 in tobacco roots: significantly increased the expression levels
Tobacco roots; [73]
  Antioxidant genes (GO antioxidant activity) up-regulated: 60 of 61
  Immune genes (GO immune system process) up-regulated: 70 of 82
Tobacco roots; tobacco roots, coregulated genes, vs DMSO
  Environmental adaptation-related genes (KEGG) up-regulated: 22 of 29
[2]
  IC50 for EGFR-associated tyrosine kinase: Lavendustin A (RG‐14355), isolated from Streptomyces Griseolavendus, is a potent, specific and ATP‐competitive inhibitor of tyrosine kinase, with an IC50 of 11 ng/mL for EGFR‐associated tyrosine kinase (Hsu et al., [1991])
FER‐CD
  Kd: 2690 nM
tobacco
  Growth (biomass) of tobacco shoots and roots: significantly improved the growth of tobacco shoots and roots
